Measurements from patent publication US11840686B2, “Modulation of prekallikrein (PKK) expression” (Ionis Pharmaceuticals, Inc., priority 2013, dated 2023).
Strand notation (5' to 3'): a small letter for the sugar, then the base; units joined by * are phosphorothioate-linked, units joined directly phosphodiester-linked; [ ] holds rarer units or linkages, { } end groups; capitals alone tell only the bases. e = 2'-O-(2-methoxyethyl) (MOE); k = constrained ethyl (cEt); [5mC] = 5-methylcytosine; d = 2'-deoxy (DNA)

How the values were obtained:
human PKK mRNA [1] = assay: Antisense inhibition of human PKK mRNA in HepaRG cells, 1,000 nM, MOE/deoxy/cEt oligonucleotides (Example 3); format: cell-based; settings: HepaRG cells, electroporation with 1,000 nM antisense oligonucleotide
Outline: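 HepaRG cells at 20,000 per well electroporated with 1,000 nM 16-mer MOE/cEt/deoxy gapmers (phosphorothioate, 5-methylcytosine). After about 24 h, PKK mRNA measured by qRT-PCR with primer probe set RTS3454, normalized to RIBOGREEN total RNA. Reported as percent inhibition versus untreated cells.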

human PKK mRNA [2] = assay: Dose-dependent antisense inhibition of human PKK in HepaRG cells, 0.11-3.00 uM (Example 6); format: cell-based; settings: for IC50: 0.11-3.00 μM; for percent inhibition of PKK mRNA, 0.11 μM / percent inhibition of PKK mRNA, 0.33 μM / percent inhibition of PKK mRNA, 1.00 μM / percent inhibition of PKK mRNA, 3.00 μM: electroporation, approx. 16 hours, relative to untreated control cells
Experimental: Cells were plated at a density of 20,000 cells per well and transfected using electroporation with 0.11 μM, 0.33 μM, 1.00 μM, and 3.00 μM concentrations of antisense oligonucleotide. After a treatment period of approximately 16 hours, RNA was isolated from the cells and PKK mRNA levels were measured by quantitative real-time PCR. Human PKK primer probe set RTS3454 was used to measure mRNA levels. PKK mRNA levels were adjusted according to total RNA content, as measured by RIBOGREEN®. The antisense oligonucleotides were tested in a series of experiments that had similar culture conditions.
The half maximal inhibitory concentration (IC50) of each oligonucleotide is also presented.

[3] = approximately 24 hours, primer probe set RTS3454, relative to untreated control cells, experiment of Table 24
[4] = Table 19, approximately 24 hours, PKK mRNA by RT-PCR (RTS3454), relative to untreated control cells
[5] = approx. 24 hours, PKK mRNA by RT-PCR (RTS3454), relative to untreated control cells, Table 25 experiment

Row | Substance | % inhibition (human PKK mRNA [1]; [3]) | IC50 (human PKK mRNA [2]) | percent inhibition of PKK mRNA, 0.11 μM (human PKK mRNA [2]) | percent inhibition of PKK mRNA, 0.33 μM (human PKK mRNA [2]) | percent inhibition of PKK mRNA, 1.00 μM (human PKK mRNA [2]) | percent inhibition of PKK mRNA, 3.00 μM (human PKK mRNA [2]) | % inhibition (human PKK mRNA [1]; [4]) | % inhibition (human PKK mRNA [1]; [5])
1 | 548004 (eA*eG*kT*dA*dA*d[5mC]*d[5mC]*dA*dG*dA*dG*d[5mC]*dT*k[5mC]*k[5mC]*e[5mC]; antisense) [compound 548004] | 80% | 300 nM | 24% | 47% | 80% | 92% | – | –
2 | 548005 (eA*eG*kA*dG*dT*dA*dA*d[5mC]*d[5mC]*dA*dG*dA*dG*k[5mC]*kT*e[5mC]; antisense) [compound 548005] | 77% | 400 nM | 53% | 49% | 71% | 95% | – | –
3 | 548010 (eA*eG*kT*dG*dT*dT*dA*d[5mC]*dA*d[5mC]*dA*dA*dT*k[5mC]*kT*e[5mC]; antisense) [compound 548010] | 80% | 1400 nM | 0% | 11% | 49% | 64% | – | –
4 | 548024 (eG*e[5mC]*kT*dG*dT*d[5mC]*dA*dG*d[5mC]*dT*dT*d[5mC]*dA*k[5mC]*k[5mC]*eT; antisense) [compound 548024] | 79% | 300 nM | 28% | 57% | 84% | 82% | – | –
5 | 548043 (eA*eT*kT*dT*dG*dT*dG*dA*dG*dA*dA*dA*dG*kG*kT*eG; antisense) [compound 548043] | 76% | 300 nM | 14% | 60% | 90% | 92% | – | –
6 | 548046 (eT*eA*kT*d[5mC]*dA*dT*dG*dA*dT*dT*d[5mC]*d[5mC]*d[5mC]*kT*kT*e[5mC]; antisense) [compound 548046] | 84% | 700 nM | 7% | 35% | 64% | 77% | – | –
7 | 548047 (eG*eA*kT*dA*dT*d[5mC]*dA*dT*dG*dA*dT*dT*d[5mC]*k[5mC]*k[5mC]*eT; antisense) [compound 548047] | 83% | – | 50% | 62% | 76% | 95% | – | –
8 | 548055 (eG*eT*kA*dA*dT*dT*d[5mC]*dA*dA*dA*dG*dG*dA*kG*k[5mC]*e[5mC]; antisense) [compound 548055] | 78% | 300 nM | 43% | 57% | 50% | 88% | – | –
9 | 548061 (eG*e[5mC]*kT*dT*dG*dT*dG*dT*d[5mC]*dA*d[5mC]*d[5mC]*dT*kT*kT*eG; antisense) [compound 548061] | 86% | 400 nM | 26% | 61% | 59% | – | – | –
10 | 548069 (e[5mC]*e[5mC]*kA*dA*d[5mC]*dA*dG*dT*dT*dG*dG*dT*dA*kT*kA*eA; antisense) [compound 548069] | 57% | 1900 nM | 6% | 0% | 27% | 66% | – | –
11 | 548070 (e[5mC]*e[5mC]*k[5mC]*dA*dA*d[5mC]*dA*dG*dT*dT*dG*dG*dT*kA*kT*eA; antisense) [compound 548070] | 85% | 1100 nM | 26% | 35% | 48% | 63% | – | –
12 | 548106 (antisense e[5mC]*e[5mC]*kA*dT*dG*dT*dA*d[5mC]*dT*d[5mC]*dA*dG*d[5mC]*kG*kA*e[5mC]) [compound 548106] | – | – | 53% | 54% | 82% | 94% | 79% | –
13 | 548109 (antisense eG*e[5mC]*kA*dT*d[5mC]*dT*dG*dA*dG*d[5mC]*dT*dT*dT*kT*k[5mC]*e[5mC]) [compound 548109] | – | – | 50% | 92% | 79% | 85% | 77% | –
14 | 548125 (antisense e[5mC]*eT*kA*dG*dA*d[5mC]*dT*d[5mC]*dT*dG*dG*dA*d[5mC]*kT*kG*e[5mC]) [compound 548125] | – | 300 nM | 33% | 50% | 81% | 73% | 89% | –
15 | 548128 (eA*eT*kT*dG*d[5mC]*d[5mC]*dT*dA*dG*dA*d[5mC]*dT*d[5mC]*kT*kG*eG; antisense) [compound 548128] | – | 1100 nM | 14% | 29% | 49% | 66% | 55% | –
16 | 548147 (e[5mC]*eG*kT*d[5mC]*d[5mC]*dT*dT*dA*dG*dG*dA*dT*dG*k[5mC]*kA*eA; antisense) [compound 548147] | – | – | 59% | 94% | 80% | – | 81% | –
17 | 548155 (e[5mC]*eG*kT*dG*d[5mC]*dT*dG*dA*dA*dA*dG*d[5mC]*dG*kG*kG*e[5mC]; antisense) [compound 548155] | – | 300 nM | 49% | 50% | 70% | 81% | – | 76%
18 | 548170 (eA*eG*kT*dT*dG*d[5mC]*dG*dA*d[5mC]*d[5mC]*dT*d[5mC]*dG*k[5mC]*kA*eT; antisense) [compound 548170] | – | 2000 nM | 0% | 8% | 26% | 65% | – | 68%
19 | 548174 (eT*e[5mC]*kT*d[5mC]*dA*dG*dT*dT*dG*d[5mC]*dG*dA*d[5mC]*k[5mC]*kT*e[5mC]; antisense) [compound 548174] | – | 2000 nM | 20% | 18% | 29% | 62% | – | 68%
20 | 548180 (eT*e[5mC]*kA*dT*dG*dG*dA*dG*dA*dT*d[5mC]*dT*d[5mC]*kA*kG*eT; antisense) [compound 548180] | – | 400 nM | 11% | 59% | 71% | 88% | – | 79%
21 | 548195 (eT*eT*k[5mC]*dT*dG*d[5mC]*d[5mC]*dA*dA*d[5mC]*dA*dG*dT*kT*kT*e[5mC]; antisense) [compound 548195] | – | 800 nM | 5% | 23% | 61% | 76% | – | 84%
22 | 548197 (eT*eG*k[5mC]*dT*dT*dG*dG*d[5mC]*dT*dT*d[5mC]*dA*dA*kT*kA*eT; antisense) [compound 548197] | – | 800 nM | 33% | 37% | 51% | 75% | – | 68%
23 | 548201 (eT*eG*kT*dT*d[5mC]*dT*dA*dA*dT*dG*dT*dG*dG*k[5mC]*kA*e[5mC]; antisense) [compound 548201] | – | 800 nM | 0% | 7% | 70% | 85% | – | 67%
24 | 548217 (e[5mC]*eT*kG*dT*dG*d[5mC]*dA*dT*dA*dG*dA*d[5mC]*d[5mC]*k[5mC]*k[5mC]*eA; antisense) [compound 548217] | – | 900 nM | 22% | 24% | 54% | 71% | – | 69%
